Results on one molecule are retold here after US8546451B2 (priority 2005, dated 2013).

Molecules are shown by their SMILES.

The test system of one data set is serum testosterone. The experiment in a line: Recovery of testosterone levels following suppression in rats. The class given is in vivo, Sprague-Dawley rats. From the text:
Thirty-five (35) male Sprague-Dawley rats weighing approximately 200 g were maintained on a 12-h light/dark cycle with food (2016 Teklad Global 16% Protein Rodent Diet, Harlan, Madison, Wis.) and water available ad libitum. The animal protocol was reviewed and approved by the Institutional Animal Care and Use Committee of the University of Tennessee.
The test article for this study was weighed and dissolved in PEG 300 (100%) (Acros Organics, NJ) to prepare the appropriate dose formulations. Animals were randomly assigned to one of the ten treatment groups (n =5 animals/group). The animals were housed in groups of 2 to 3 animals per cage. Group 1 was sacrificed at the initiation of the study (Day 1) for determination of baseline testosterone levels in intact animals. Groups 2-7 received daily doses of 1, 3, or 30 mg/kg via oral gavage (˜200 uL) for three days. Groups 2, 3, and 4 were sacrificed on Day 4 to measure maximal testosterone suppression. Groups 5, 6, and 7 were allowed to recover for 14 days with a drug free washout period.

Data set [1] can be described thus: Preliminary oral pharmacokinetics in monkeys. Format: in vivo. As for the experimental part:
(§1) Formulations using polyethylene glycol 300 (PEG300) generally produced higher exposures than microemulsions prepared in Tween 80 diluted in deionized water. […] Importantly, in dogs the exposure in the male 30 mg/kg PEG300 oral dose group exceeded the exposure necessary to produce the maximal effect on prostate reduction in the rat model of LH suppression.

In data set [2] the target is glucocorticoid receptor (GR) (Rattus norvegicus (Rat), UniProt P06536). The experiment in a line: DES versus Compound IV, GR crossreaction (FIG. 12A). The class given is cell-based.
Data set [3] addresses progesterone receptor (PR) (Rattus norvegicus (Rat), UniProt Q63449). The experiment in a line: Cross-reactivity transcriptional activation assay, PR. The class given is cell-based. As to conditions: agonist and antagonist modes. The source says:
(§2) Compound IV was screened for cross-reactivity against rat isoforms of glucocorticoid receptor (GR), mineralocorticoids receptor (MR), progesterone receptor (PR), androgen receptor (AR) and human isoforms of farnesoid X receptor (FXR), liver X receptor (LXR), peroxisome proliferator-activated receptors (PPAR-α and PPAR-γ), and retinoid X receptor (RXR-α) in both agonist and antagonist modes in transcriptional activation assays.

The subject of another data set is telemetered dogs. The experiment in a line: Hemodynamic and cardiac function in telemetered dogs. Format: in vivo. As to conditions: any dose (up to 300 mg/kg).
Data set [4] relates to morphine dependent rat model. The experiment in a line: Hot flashes in morphine dependent rat model (tail skin temperature). Format: in vivo. As to conditions: morphine withdrawal model. The method, then: FIG. 13 depicts effect of Compound IV on attenuation of hot flashes in morphine withdrawal model with 5 mg/kg, 10 mg/kg, 15 mg/kg and 30 mg/kg dosages. N=7 animals per group. 17β-E2 was used at 5 mg/kg in 100% DMSO. (See Example 14.)
In addition to the similarities to the human condition, this experimental animal model has a short turn around time which makes it a useful high throughput screening tool for identifying compounds that can alleviate vasomotor symptoms using the tail skin temperature (TST). TST probes TA-40 (Data Sciences International, MN) were taped to the base of the tails and baseline temperatures were obtained for 15 minutes. After 15 minutes the animals were treated with naloxone (1 mg/kg, SQ) to reverse the effects of the morphine. Tail skin temperature (TST) was measured for one hour post-naloxone treatment with a sampling frequency of 5 secs throughout the course of the experiment. Following the data acquisition, the moving average of the temperature recorded every 60 seconds for each animal was calculated and further analyzed. Baseline temperature was computed as the average temperature acquired over the 15 minutes preceding naloxone administration. The area under the curve (AUC) was calculated by subtracting all the values post-naloxone administration from the baseline using a linear trapezoid method.

For data set [5], the target named is farnesoid X receptor (FXR) (Homo sapiens (Human), UniProt Q96RI1). The experiment in a line: Cross-reactivity transcriptional activation assay, FXR. The class given is cell-based. As to conditions: agonist and antagonist modes.
Text: as §2

Data set [6] concerns the target ER-α ligand binding domain (LBD) (Homo sapiens (Human), UniProt P03372). The experiment in a line: ER-α competitive radioligand binding assay with [3H]E2. As to conditions: read-out: ER-α Ki. The method, then:
Following incubation, plates were harvested with GF/B filters on the Unifilter-96 Harvester (PerkinElmer) and washed three times with ice-cold buffer B (50 mM Tris, pH 7.2). The filter plates were dried at room temperature, then 35 μl Microscint-O cocktail was added to each well and the filter plates were sealed with TopSeal-A. Radioactivity was counted in a TopCount® NXT Microplate Scintillation Counter using the settings for ^3H in Microscint cocktail (PerkinElmer).
E2 (determined by incubating with 10^−6 M unlabeled E2) and expressing it as a percentage of the specific binding in the absence of test compound.

For another data set, the system named is rats. The experiment in a line: Gastrointestinal effects in rats. The class given is in vivo. The settings on record: oral.
The nature of data set [7]: Oral pharmacokinetics in dogs. The class given is in vivo. The method, then:
as §1

The next data set has as its target PPAR-γ (Homo sapiens (Human), UniProt P37231). The experiment in a line: Cross-reactivity transcriptional activation assay, PPAR-γ. Format: cell-based. As to conditions: agonist and antagonist modes.
Text: as §2

Chain of ER-α ligand binding domain (LBD) (P03372 whole entry, looked up, species assumed, the tested form may be a part): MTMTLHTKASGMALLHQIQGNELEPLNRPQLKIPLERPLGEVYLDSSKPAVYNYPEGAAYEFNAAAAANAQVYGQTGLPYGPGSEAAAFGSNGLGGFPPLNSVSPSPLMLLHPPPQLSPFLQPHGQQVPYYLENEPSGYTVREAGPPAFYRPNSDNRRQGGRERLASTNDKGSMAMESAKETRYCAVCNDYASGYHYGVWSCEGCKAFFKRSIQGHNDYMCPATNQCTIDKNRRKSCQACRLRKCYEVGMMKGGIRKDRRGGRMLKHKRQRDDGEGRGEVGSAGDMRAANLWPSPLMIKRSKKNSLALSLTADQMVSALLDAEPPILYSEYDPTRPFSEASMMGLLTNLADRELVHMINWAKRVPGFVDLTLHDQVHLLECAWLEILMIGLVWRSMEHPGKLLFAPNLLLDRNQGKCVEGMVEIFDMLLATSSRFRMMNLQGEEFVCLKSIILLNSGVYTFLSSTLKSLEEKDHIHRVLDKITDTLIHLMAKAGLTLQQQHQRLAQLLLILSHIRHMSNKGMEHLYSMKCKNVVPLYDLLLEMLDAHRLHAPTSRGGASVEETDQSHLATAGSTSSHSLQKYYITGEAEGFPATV
Chain of progesterone receptor (PR) (Q63449 whole entry, canonical isoform): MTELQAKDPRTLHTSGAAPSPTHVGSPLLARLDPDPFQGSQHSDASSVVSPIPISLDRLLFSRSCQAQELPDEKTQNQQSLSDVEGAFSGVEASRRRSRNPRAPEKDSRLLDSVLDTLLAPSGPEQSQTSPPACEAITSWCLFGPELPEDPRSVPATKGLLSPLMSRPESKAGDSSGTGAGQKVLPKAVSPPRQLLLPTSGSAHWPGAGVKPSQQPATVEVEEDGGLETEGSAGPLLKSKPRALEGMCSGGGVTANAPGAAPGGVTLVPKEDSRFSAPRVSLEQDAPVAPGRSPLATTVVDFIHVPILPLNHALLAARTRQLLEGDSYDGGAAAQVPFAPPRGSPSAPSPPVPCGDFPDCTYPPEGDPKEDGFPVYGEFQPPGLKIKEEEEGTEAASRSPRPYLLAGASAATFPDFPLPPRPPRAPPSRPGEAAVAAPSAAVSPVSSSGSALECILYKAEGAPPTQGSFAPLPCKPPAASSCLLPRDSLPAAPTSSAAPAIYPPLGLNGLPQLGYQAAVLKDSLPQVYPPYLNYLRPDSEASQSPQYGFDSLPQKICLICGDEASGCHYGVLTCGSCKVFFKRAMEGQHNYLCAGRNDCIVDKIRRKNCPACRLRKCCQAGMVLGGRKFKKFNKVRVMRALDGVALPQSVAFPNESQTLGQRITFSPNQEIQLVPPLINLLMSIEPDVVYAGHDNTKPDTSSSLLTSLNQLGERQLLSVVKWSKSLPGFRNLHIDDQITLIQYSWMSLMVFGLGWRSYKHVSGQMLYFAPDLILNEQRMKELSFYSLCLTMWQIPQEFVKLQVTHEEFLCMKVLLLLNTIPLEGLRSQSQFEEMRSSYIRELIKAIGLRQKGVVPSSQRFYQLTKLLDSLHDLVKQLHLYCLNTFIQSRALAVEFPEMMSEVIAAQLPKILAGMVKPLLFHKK
Chain of PPAR-γ (P37231 whole entry): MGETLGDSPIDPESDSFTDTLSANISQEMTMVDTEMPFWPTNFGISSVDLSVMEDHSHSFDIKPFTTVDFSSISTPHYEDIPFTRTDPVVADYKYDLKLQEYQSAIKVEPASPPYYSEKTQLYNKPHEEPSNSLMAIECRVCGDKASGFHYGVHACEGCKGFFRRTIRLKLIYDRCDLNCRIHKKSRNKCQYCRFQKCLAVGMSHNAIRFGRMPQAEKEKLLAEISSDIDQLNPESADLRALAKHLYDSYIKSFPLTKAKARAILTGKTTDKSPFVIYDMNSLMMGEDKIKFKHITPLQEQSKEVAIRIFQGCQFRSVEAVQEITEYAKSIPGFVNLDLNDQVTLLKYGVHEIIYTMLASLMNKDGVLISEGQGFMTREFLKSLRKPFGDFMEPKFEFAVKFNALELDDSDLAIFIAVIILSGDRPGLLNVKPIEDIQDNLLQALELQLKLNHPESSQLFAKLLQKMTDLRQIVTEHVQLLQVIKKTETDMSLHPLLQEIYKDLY
Chain of glucocorticoid receptor (GR) (P06536 whole entry): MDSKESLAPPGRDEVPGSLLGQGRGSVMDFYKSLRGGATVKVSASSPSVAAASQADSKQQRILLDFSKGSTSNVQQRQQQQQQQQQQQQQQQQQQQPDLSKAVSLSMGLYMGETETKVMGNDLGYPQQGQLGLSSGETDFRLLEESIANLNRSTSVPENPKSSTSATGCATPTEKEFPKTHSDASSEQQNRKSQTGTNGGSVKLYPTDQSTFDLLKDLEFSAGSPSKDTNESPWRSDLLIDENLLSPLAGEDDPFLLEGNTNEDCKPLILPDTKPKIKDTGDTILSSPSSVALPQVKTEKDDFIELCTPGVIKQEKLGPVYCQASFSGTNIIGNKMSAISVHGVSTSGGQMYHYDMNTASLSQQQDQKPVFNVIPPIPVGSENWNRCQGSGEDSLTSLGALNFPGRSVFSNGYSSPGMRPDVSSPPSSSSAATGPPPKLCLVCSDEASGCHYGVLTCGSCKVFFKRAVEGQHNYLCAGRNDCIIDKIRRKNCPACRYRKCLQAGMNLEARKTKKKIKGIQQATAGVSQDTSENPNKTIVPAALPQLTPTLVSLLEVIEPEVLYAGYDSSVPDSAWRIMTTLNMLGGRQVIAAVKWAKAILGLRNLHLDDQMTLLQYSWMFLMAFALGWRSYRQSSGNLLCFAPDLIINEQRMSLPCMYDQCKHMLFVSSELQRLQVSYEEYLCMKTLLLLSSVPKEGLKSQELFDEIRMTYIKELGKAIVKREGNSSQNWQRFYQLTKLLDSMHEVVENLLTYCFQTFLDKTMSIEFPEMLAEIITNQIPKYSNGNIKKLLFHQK
Chain of farnesoid X receptor (FXR) (Q96RI1 whole entry): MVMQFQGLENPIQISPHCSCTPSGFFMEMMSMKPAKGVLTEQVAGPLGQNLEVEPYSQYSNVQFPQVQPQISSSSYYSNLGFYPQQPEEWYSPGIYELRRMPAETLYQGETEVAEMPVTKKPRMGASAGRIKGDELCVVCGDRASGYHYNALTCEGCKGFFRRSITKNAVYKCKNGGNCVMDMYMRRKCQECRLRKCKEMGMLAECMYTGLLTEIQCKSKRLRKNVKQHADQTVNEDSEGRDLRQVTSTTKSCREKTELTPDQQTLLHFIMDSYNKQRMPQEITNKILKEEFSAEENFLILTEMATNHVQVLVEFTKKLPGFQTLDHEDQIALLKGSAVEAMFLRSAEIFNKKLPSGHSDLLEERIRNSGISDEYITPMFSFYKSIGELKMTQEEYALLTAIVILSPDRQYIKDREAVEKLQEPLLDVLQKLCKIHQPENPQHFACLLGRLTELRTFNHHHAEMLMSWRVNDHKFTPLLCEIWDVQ

As usually defined, the Ki is a measure of affinity in units of concentration, obtained from inhibition or displacement. As to `O=C(c1ccc(O)c(F)c1)N(c1ccc(O)cc1)c1ccc(F)cc1` [Compound IV, 3-fluoro-N-(4-fluorophenyl)-4-hydroxy-N-(4-hydroxyphenyl)benzamide], the serum testosterone levels in the data set on serum testosterone (1 mg/kg oral for three days, after 14 day recovery) amounted to 3.3 ± 1.92 ng/mL; in the data set on serum testosterone (3 mg/kg oral for three days, after 14 day recovery), 3.00 ± 1.06 ng/mL; in the data set on serum testosterone (3 mg/kg oral for three days, no recovery, baseline 6.4±3.1), 1.47 ± 0.26 ng/mL; in the data set with serum testosterone (30 mg/kg oral for three days, after 14 day recovery), 3.8 ± 1.72 ng/mL; with serum testosterone (30 mg/kg oral for three days, no recovery, baseline 6.4±3.1) it was 1.62 ± 0.49 ng/mL. In addition, the serum testosterone suppression result in the data set with serum testosterone (1 mg/kg oral for three days, no recovery) is recorded as “No significant suppression”. The “reversibility of pharmacologic castration” value in the data set on serum testosterone (rats, within 14 days of recovery) is given as “reversible”. Also, the “absorption following oral dosing” value in data set [1] and in data set [7] was “rapidly absorbed” throughout. In addition, the oral bioavailability result in data set [1] (preliminary) is given as “approximates or exceeds that in dogs”. Also, in data set [2], the “crossreaction with GR” value is given as “did not”. Besides, the “agonist or antagonist activity” value (in [3]; in data set [5]; on PPAR-γ) was “did not display any agonist or antagonist activity” each time. Besides, the “hemodynamic or cardiac function (blood pressure, heart rate, electrocardiogram morphology or QT intervals)” value with telemetered dogs is on record as “did not affect”. Also, the “dose with the best results” value in data set [4] was 10 mg. For the same molecule, the “effect on hot flushes” value in [4] (5, 10, 15 and 30 mg/kg (FIG. 13)) is recorded as “attenuated hot flushes”. Further, the Ki in data set [6] came to 21.7 ± 1.7 nM. The “gastrointestinal motility and gastric acidity” value in the data set on rats (30 mg/kg) was “significant increase”. The peristalsis result in the data set on rats (30 to 300 mg/kg) is listed as “significant increase”. In addition, the enterohepatic recirculation entry in data set [7] (second peak in the terminal phase of plasma concentration-time profiles) is recorded as “undergoes enterohepatic recirculation”.
